The source of these data is patent US8951527B2, “Radioprotectants targeting thrombospondin-1 and CD47” (The United States of America, as represented by the …, priority 2008, dated 2015).

The subject of one series is HAVSMC. Kind of series: HAVSMC cell viability after irradiation (CellTiter 96). It is filed as cell-based, human. As to conditions: greater doses of radiation (FIG. 13). The method, then: FIG. 13. Peptide 7N3 is radioprotective to HAVSMC in culture. Human aortic vascular smooth muscle cells (HAVSMC) were also subjected to the CellTiter 96 Aqueous One Solution cell proliferation assay (Promega, Madison, Wis.).
Cell Viability Assay. HUVEC were plated at a density of 5000 cells/well in 96 well plates (Nunc), and were treated 24 hours later with either the indicated doses of a CD47 antibody (B6H12), a TSP1 antibody (A6.1), the CD47-binding peptide 7N3, or control peptide 604. One hour later the cells were exposed to a single dose of gamma radiation (0, 10, 20, 30, and 40 Gy) and allowed to incubate another 72 hours at 37° C. Experiments done with B16E10 melanoma cells in Example 4 were done in a similar manner treating either 1 hour prior to a single dose of radiation (10 Gy) with peptide 7N3 or 48 hours prior with CD47 morpholino. Cell viability was determined using the CellTiter 96 Aqueous One Solution cell proliferation assay (Promega, Madison, Wis.) as per the manufacturer's instructions and absorbance at 490 nm was determined using an MR580 Microelisa AutoReader (Dynatech, Alexandria, Va.). The same assay was performed on HUVEC using either the CD47 or CD36 morpholino, but 48 hours were allowed to pass prior to radiation (0 or 40 Gy) to allow for suppression of the target proteins. […]

Series [1] concerns HUVEC. Kind of series: HUVEC cell viability after irradiation (MTT / CellTiter 96). It is filed as cell-based, human. The conditions noted are these: for cell viability after graded doses of peptide and radiation: peptide 1 hour before 0, 10, 20, 30, 40 Gray, 72 hours (FIG. 12); for survival / cell death of irradiated HUVEC (MTT): 40 Gy or no radiation, 48 hours post radiation (FIG. 22). The method, then: FIG. 11. Radioprotective activities of TSP1 and CD47 antibodies, a CD47 binding peptide from TSP1, and a CD47 morpholino. HUVEC were plated on 96-well plates in standard growth medium. Cells were treated with TSP1 (FIG. 11A) or CD47 (FIG. 11B) monoclonal antibodies (clone A6.1 or B6H12, respectively) and received the indicated doses of radiation 24 hours after addition of the antibodies. Cell (mitochondrial) viability was measured 48 hours post irradiation using an MTT assay. Cells were treated using peptide 7N3 (FIG. 11C) and control peptide 604 (FIG. 11D), subjected to the same experimental conditions, and assayed via MTT. […] Experiments were repeated 3 times and results presented as the mean±SD.
FIG. 12. Peptides 7N3 and C6d are radioprotective to HUVEC in culture. Human umbilical vein endothelial cells (HUVEC) grown in EGM medium in 96-well plates were treated with graded doses of a peptide agent, as indicated. One hour later, cells were exposed to a single dose of gamma radiation (0, 10, 20, 30, and 40 Gray) and allowed to incubate 72 hours at 37° C. Cell viability was determined with the CellTiter 96 AQueous One Solution Cell Proliferation Assay.
Cell Viability Assay. HUVEC were plated at a density of 5000 cells/well in 96 well plates (Nunc), and were treated 24 hours later with either the indicated doses of a CD47 antibody (B6H12), a TSP1 antibody (A6.1), the CD47-binding peptide 7N3, or control peptide 604. One hour later the cells were exposed to a single dose of gamma radiation (0, 10, 20, 30, and 40 Gy) and allowed to incubate another 72 hours at 37° C. Experiments done with B16E10 melanoma cells in Example 4 were done in a similar manner treating either 1 hour prior to a single dose of radiation (10 Gy) with peptide 7N3 or 48 hours prior with CD47 morpholino. Cell viability was determined using the CellTiter 96 Aqueous One Solution cell proliferation assay (Promega, Madison, Wis.) as per the manufacturer's instructions and absorbance at 490 nm was determined using an MR580 Microelisa AutoReader (Dynatech, Alexandria, Va.). The same assay was performed on HUVEC using either the CD47 or CD36 morpholino, but 48 hours were allowed to pass prior to radiation (0 or 40 Gy) to allow for suppression of the target proteins. Similarly, control experiments were performed using the nitric oxide synthase (NOS) inhibitor L-NAME, a membrane permeable cGMP analogue, 8-Bromo cGMP, or the NO donor DETA/NO.
In an additional experiment to test the effect of radioprotective peptides, human umbilical vein endothelial cells (HUVEC) grown in EGM medium in 96-well plates were treated with graded doses of a peptide agent, as indicated. One hour later, cells were exposed to a single dose of gamma radiation (0, 10, 20, 30, and 40 Gray) and allowed to incubate 72 hours at 37° C. Cell viability was determined with the CellTiter 96 AQueous One Solution Cell Proliferation Assay.

For a further series, the system named is B16F10 melanoma cells. Nature of the series: B16F10 melanoma cell viability after irradiation in vitro. It is filed as cell-based, mouse. As to conditions: 7N3 1 hour or morpholino 48 hours before 10 Gy, versus untreated cells. The method, then: FIG. 19. CD47 suppression enhances re-growth delay in irradiated syngeneic B16 melanoma and squamous cell carcinoma tumors but increases radioresistance of B16 cells in vitro. C57BL/6 mice were injected with 1×10^6 B16 mouse melanoma cells into their right hindlimbs. Five days later, the mice were randomized into 4 groups (12 mice in each group) where they either received injections of CD47 morpholino (10 μM) in sterile PBS, PBS, or no injection. The two groups receiving injections were then subjected to radiation (10 Gy) to the effected hindlimb 48 hours later. The other two groups served as controls and consisted of tumor alone or tumor subjected to only the morpholino. Tumors were followed post-radiation for 30 days, measuring their volume every 6 days (FIG. 19A). […] Cell (mitochondrial) viability was measured 48 hours post radiation using the MTT assay.
Cell Viability Assay. […] Cell viability was determined using the CellTiter 96 Aqueous One Solution cell proliferation assay (Promega, Madison, Wis.) as per the manufacturer's instructions and absorbance at 490 nm was determined using an MR580 Microelisa AutoReader (Dynatech, Alexandria, Va.). […]
Irradiation of cells. […] The dose rate at 50 cm from the x-ray source was 242 cGy/minute, as determined by multiple thermo luminescent dosimeter readings.

Series [2] relates to HUVEC. Kind of series: HUVEC proliferation post-radiation (BrdU incorporation). Format: cell-based, human. The conditions noted are these: treated 48 hours before 10 Gy, over 1 week (FIG. 14). On the procedure:
FIG. 14. TSP1 and CD47 antibodies or antisense suppression of CD47 maintain proliferation of irradiated HUVEC. HUVEC were plated in 96-well plates in growth medium and treated with CD47 morpholino (FIG. 14A; *p<0.05, #p<0.01) TSP1, or CD47 antibodies (FIG. 14B; *p<0.05, #p<0.01) and exposed to 10 Gy irradiation 48 hours later. Cell proliferation at the indicated times post-radiation was determined by intracellular BrdU incorporation. Experiments were repeated 3 times, and results presented as the mean±SD.
FIG. 15. HUVEC protected by radioprotective agents are both viable and proliferate at a better rate than untreated cells in culture. Proliferation was assessed by quantifying incorporation of bromodeoxyuridine (BrdU) into newly synthesized DNA using a BrdU Cell Proliferation Assay. HUVEC were seeded into 96 well plates for 24 hours at 37° C., then treated with either antibody A6.1 or B6H12 or peptide 7N3. The treated cells were irradiated at 40 Gy 1 hour later. Control and irradiated plates were assayed for BrdU uptake over 96 hours post-radiation. The assay was performed according to the manufacturer's protocol, and the plates were read at 420 nm.
Cell proliferation assay: Proliferation was assessed by quantifying incorporation of bromodeoxyuridine (BrdU) into newly synthesized DNA using a BrdU Cell Proliferation Assay (Calbiochem, La Jolla, Calif.). Primary murine wild type, TSP1, TSP2, and CD47 null lung endothelial cells were seeded into 96 well plates at 5×10^4 cells/well density. After 24 hours incubation at 37° C. treatment groups were irradiated at 40 Gy. Control and irradiated plates were assayed for BrdU uptake over 24 hours starting at 48 to 168 hours post-radiation. The assay was performed according to the manufacturer's protocol, and the plates were read at 420 nm.
Proliferative capacities were also determined in endothelial cells exposed to high doses of radiation of 40 Gy. […] The assay was performed according to the manufacturer's protocol, and the plates were read at 420 nm.

The next series relates to C57BL/6 wild type mice. Nature of the series: Hindlimb irradiation (25 Gy), skin reaction / tissue necrosis grading and histology. Format: in vivo, mouse. The conditions noted are these: 10 μM in 750 μl PBS local-regional, 48 hours before 25 Gy, 8 weeks. The method, then:
FIG. 16. CD47 suppression using an antisense morpholino minimizes tissue damage from radiation injury. Age and sex matched C57BL16 wild type mice underwent a one-time treatment of the right hindlimb with either a murine specific CD47 morpholino oligonucleotide (10 μM in 750 μl PBS) or 750 μl of PBS injected local-regionally to the muscle and soft tissues. […] At the end of 8 weeks, there was a considerable amount of alopecia, dry desquamation and early signs of fibrotic contractures within the irradiated hind limbs of mice receiving only PBS. […] The tissue necrosis grading scores for 8 animals are presented as mean±SD (FIG. 16B) and show a similar trend throughout the 8-week observation period.
Skin reaction: Skin reaction following hind limb irradiation was quantified every week following treatment for 8 weeks using a previously described grading system (Flanders et al., Am J Pathol 163:2247-2257, 2003). The grading system consisted of 5 categories: normal, hair loss, erythema, dry desquamation and moist desquamation/ulceration.
Irradiation of mice: Age and sex matched wild type mice underwent local irradiation to the right hindlimb as described in Example 1. Forty-eight hours prior to irradiation, animals received the CD47 morpholino (SEQ ID NO: 4), a control morpholino (SEQ ID NO: 5) (both at 10 μM in […] PBS via intramuscular injection), vehicle, or no treatment to the hind limb. Under 1% isoflurane inhalation anesthesia, the animals were placed in customized Lucite jigs that allow for immobilization and selective irradiation of the right hindlimb. A single radiation dose of 25 Gy was delivered by a Therapax® DXT300 X-ray irradiator (Pantak, Inc., East Haven, Conn.) using 2.0-mm A1 filtration (300 kVp) at a dose rate of 2.53 Gy/min. Care was taken to avoid irradiation of other body parts by using lead shields specifically designed as a part of the jigs. After irradiation, the animals were placed in cages as indicated above and observed weekly. Skin reaction after hind limb irradiation was quantified every week after treatment for 8 weeks using a previously described grading system (Flanders et al., Am J. Pathol 163:2247-2257, 2003). Briefly, tissue necrosis grading system consists of 5 categories: normal, hair loss, erythema, dry desquamation, and moist desquamation/ulceration.
Age and sex matched C57BL16 wild type mice underwent a one-time treatment of the right hindlimb with the CD47 antisense morpholino oligonucleotide (10 μM in 750 μl PBS), a mismatched control morpholino, or vehicle (PBS) injected local-regionally to the muscle and soft tissues.

Entries after “also recorded” stand apart in the source; their conditions may differ.

On to FIRVVMYEGKK [7N3], for which, in the series with HAVSMC, the “cell viability after radiation” value was “profound radioprotective protective effect”. For the same molecule, the “cell (mitochondrial) viability post irradiation” value in the series with HUVEC [1] (antibody or peptide before radiation, 0-40 Gy (FIG. 11A-D)) is listed as “enhanced cell survival post-irradiation”. Besides, in the series with HUVEC [1], the “cell viability after graded doses of peptide and radiation” value is “protective effect”. In addition, the “cell viability after 10 Gy” value in the series with B16F10 melanoma cells was “mild radioprotective effect”.
In the case of `NCCN(CCN)/[N+]([O-])=N/O` [DETA/NO, reference compound], the “survival / cell death of irradiated HUVEC (MTT)” value with HUVEC [1] was “did not confer a significant survival advantage”.
As to “control morpholino: mismatched control morpholino from GeneTools (CGTGACAGCCACGACCGACTGCGCA; all phosphorodiamidate morpholino (PMO)) [reference compound]”, the “proliferation (BrdU incorporation / DNA synthesis) after 10 Gy” value in the series with HUVEC [2] is listed as “not”. Besides, the “skin reaction / tissue damage of irradiated hindlimb” value with C57BL/6 wild type mice was “significant alopecia, dry and wet desquamation, and tissue ulceration with fibrous contracture”.
Regarding `Nc1nc2c(nc(Br)n2[C@@H]2O[C@@H]3COP(=O)(O)O[C@H]3[C@H]2O)c(=O)[nH]1` [cell permeable cGMP analog, 8-Bromo cyclic guanine monophosphate, reference compound], the “survival / cell death of irradiated HUVEC (MTT)” value in the series with HUVEC [1] was “did not confer a significant survival advantage”.
“HIGWKDFTAYRWRLS [C6d, radioprotective peptide]”: the “cell viability after graded doses of peptide and radiation” value in the series with HUVEC [1] was “protective effect”.
Same read-out and setting: to “FIRGGMYEGKK [compound 604, control peptide, reference compound]” belongs “virtually no protection”.
For the molecule “CD36 morpholino: antisense morpholino specific for the TSP1 receptor CD36 (antisense ATGGGCTGTGACCGGAACTGTGGGC; all phosphorodiamidate morpholino (PMO)) [reference compound]”, the “cell viability post radiation after morpholino pretreatment” value in the series with HUVEC [1] (morpholino 48 hours before radiation (FIG. 11E, F)) is “no radioprotection; also recorded: decrease in cellular viability similar to that of untreated cells”. In addition, the “proliferation (BrdU incorporation / DNA synthesis) after 10 Gy” value in the series with HUVEC [2] is “not seen”.
